Measurements from publication PMC4304871 (Nature structural & molecular biology, 2014).

Tested on: 10E8 antibody
Assay: Competitive 10E8 ELISA binding assay
Set-up: species or system human

With “ELXKWAXLWNWFNITNZLWXIK (bicyclic or more) [SAH-MPER(662–683)(C,q)]” the “10E8 Fab-binding activity (in words)” value was “no binding activity”.
